Patent US10800792B2, “Inhibitors of Bruton's tyrosine kinase and method of their use” (JANSSEN PHARMACEUTICA NV, priority 2015, dated 2020)
Like-named read-outs stand apart in the source and are kept apart here.

Target: unphosphorylated-BTK kinase domain (UP-BTK), GST-tagged human BTK (389-659aa) (Homo sapiens (Human), UniProt Q06187)
Experiment: BTK kinase Lanthascreen binding assay
Settings: pIC50 = negative log of the IC50 in molar, 60 minutes incubation; for IC50: read-out: BTK_I_binding pIC50 (converted)
How it was run: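 Measures how well compounds compete with a fluorescence-labelled tracer for binding to BTK in its unphosphorylated state. IC50 values were fitted and expressed as pIC50 (negative logarithm of the molar IC50).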

[1] = Lanthascreen tracer competition
[2] = unphosphorylated-BTK kinase domain, 50 nM Tracer 236

Chain of unphosphorylated-BTK kinase domain (UP-BTK), GST-tagged human BTK (389-659aa) (Q06187 389-659): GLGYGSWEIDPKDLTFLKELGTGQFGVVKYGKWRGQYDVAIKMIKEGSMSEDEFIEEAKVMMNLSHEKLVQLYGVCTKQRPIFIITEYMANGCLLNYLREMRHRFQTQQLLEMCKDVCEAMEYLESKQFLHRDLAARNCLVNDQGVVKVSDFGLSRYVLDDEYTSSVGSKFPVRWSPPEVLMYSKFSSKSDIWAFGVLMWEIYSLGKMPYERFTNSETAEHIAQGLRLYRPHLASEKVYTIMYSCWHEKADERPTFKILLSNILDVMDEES

Compound	BTK_I_binding pIC50 (50 nM Tracer 236)	IC50 (50 nM Tracer 236) [nM]	also measured
Cc1cc(Oc2ccccc2F)ccc1N1C(=O)Nc2c(C(=O)NC3CCCN(C)C3)sc3nccc1c23 (stereo in doubt) [Example 57, (R)-5-(4-(2-Fluorophenoxy)-2-methylphenyl)-N-(1-methylpiperidin-3-yl)-4-oxo-4,5-dihydro-3H-1-thia-3,5,8-triazaacenaphthylene-2-carboxamide]	6.8		
C=CC(=O)N1CC(NC(=O)c2sc3nccc4c3c2NC(=O)N4c2ccc(Oc3ccccc3)cc2)C[C@@H](O)C1 (stereo in doubt) [Example 589, N-((3R,5R)-1-Acryloyl-5-hydroxypiperidin-3-yl)-4-oxo-5-(4-phenoxyphenyl)-4,5-dihydro-3H-1-thia-3,5,8-triazaacenaphthylene-2-carboxamide]			IC50 [1]: 7.94 nM
Cc1cc(Oc2ccccc2)ccc1N1C(=O)Nc2c(C(=O)NC3CCCNC3)sc3nccc1c23 (stereo in doubt) [Example 869, (R)-5-(2-Methyl-4-phenoxyphenyl)-4-oxo-N-(piperidin-3-yl)-4,5-dihydro-3H-1-thia-3,5,8-triazaacenaphthylene-2-carboxamide]			IC50 [1]: 50.1 nM
Cc1cc(Oc2ccccc2)ccc1N1C(=O)Nc2c(C(=O)NC3CCCN(C(=O)CC#N)C3)sc3nccc1c23 (stereo in doubt) [Example 874, (R)—N-(1-(2-cyanoacetyl)piperidin-3-yl)-5-(2-methyl-4-phenoxyphenyl)-4-oxo-4,5-dihydro-3H-1-thia-3,5,8-triazaacenaphthylene-2-carboxamide]			IC50 [1]: 63.1 nM
O=C(NC1CCCN(C(=O)CCCl)C1)c1sc2nccc3c2c1NC(=O)N3c1ccc(Oc2ccccc2)cn1 (stereo in doubt) [Example 906, (R)—N-(1-(3-Chloropropanoyl)piperidin-3-yl)-4-oxo-5-(5-phenoxypyridin-2-yl)-4,5-dihydro-3H-1-thia-3,5,8-triazaacenaphthylene-2-carboxamide]			BTK_I_binding pIC50 [2]: 6.7
O=C(NC1CCNC1)c1sc2nccc3c2c1NC(=O)N3c1ccc(Oc2ccccc2)cc1 (stereo in doubt) [Example 934, (S)-4-Oxo-5-(4-phenoxyphenyl)-N-(pyrrolidin-3-yl)-4,5-dihydro-3H-1-thia-3,5,8-triazaacenaphthylene-2-carboxamide]			BTK_I_binding pIC50 [2]: 6.1
C=CC(=O)N1C[C@H](F)C[C@@H](NC(=O)c2sc3nccc4c3c2NC(=O)N4c2ccc(Oc3ccccc3)cc2C)C1 [Example 1, N-((3R,5R)-1-Acryloyl-5-fluoropiperidin-3-yl)-5-(2-methyl-4-phenoxyphenyl)-4-oxo-4,5-dihydro-3H-1-thia-3,5,8-triazaacenaphthylene-2-carboxamide]		20	
C=CC(=O)N1CCC[C@@H](NC(=O)c2sc3nccc4c3c2NC(=O)N4c2ccc(Oc3ccccc3)c(F)c2C)C1 [Example 4, (R)—N-(1-Acryloylpiperidin-3-yl)-5-(3-fluoro-2-methyl-4-phenoxyphenyl)-4-oxo-4,5-dihydro-3H-1-thia-3,5,8-triazaacenaphthylene-2-carboxamide]	7.7		
C=CC(=O)N1C[C@H](O)C[C@@H](NC(=O)c2sc3nccc4c3c2NC(=O)N4c2ccc(Oc3ccccc3)cc2C)C1 [Example 6, N-((3R,5R)-1-Acryloyl-5-hydroxypiperidin-3-yl)-5-(2-methyl-4-phenoxyphenyl)-4-oxo-4,5-dihydro-3H-1-thia-3,5,8-triazaacenaphthylene-2-carboxamide]		12.6	
C=CC(=O)N1CC[C@@H](NC(=O)c2sc3nccc4c3c2NC(=O)N4c2ccc(Oc3ccccc3)c(F)c2C)C1 [Example 7, (R)—N-(1-Acryloylpyrrolidin-3-yl)-5-(3-fluoro-2-methyl-4-phenoxyphenyl)-4-oxo-4,5-dihydro-3H-1-thia-3,5,8-triazaacenaphthylene-2-carboxamide]		12.6	
C=CC(=O)N1C[C@H](NC(=O)c2sc3nccc4c3c2NC(=O)N4c2ccc(Oc3ccccc3)cc2C)C[C@@H](OC)C1 [Example 8, N-((3R,5R)-1-Acryloyl-5-methoxypiperidin-3-yl)-5-(2-methyl-4-phenoxyphenyl)-4-oxo-4,5-dihydro-3H-1-thia-3,5,8-triazaacenaphthylene-2-carboxamide]		15.8	
C=CC(=O)N1CCC[C@@H](NC(=O)c2sc3nccc4c3c2NC(=O)N4c2ccc(Oc3ccccc3)cc2F)C1 [Example 10, (R)—N-(1-Acryloylpiperidin-3-yl)-5-(2-fluoro-4-phenoxyphenyl)-4-oxo-4,5-dihydro-3H-1-thia-3,5,8-triazaacenaphthylene-2-carboxamide]		7.94	
C=CC(=O)N1CC[C@@H](NC(=O)c2sc3nccc4c3c2NC(=O)N4c2ccc(Oc3ccccc3)cc2C)C1 [Example 11, (R)—N-(1-Acryloylpyrrolidin-3-yl)-5-(2-methyl-4-phenoxyphenyl)-4-oxo-4,5-dihydro-3H-1-thia-3,5,8-triazaacenaphthylene-2-carboxamide]	7.9		
C=CC(=O)N1CC[C@@H](NC(=O)c2sc3nccc4c3c2NC(=O)N4c2ccc(Oc3ccccc3)cc2Cl)C1 [Example 12, (R)—N-(1-Acryloylpyrrolidin-3-yl)-5-(2-chloro-4-phenoxyphenyl)-4-oxo-4,5-dihydro-3H-1-thia-3,5,8-triazaacenaphthylene-2-carboxamide]	7.7		
C=CC(=O)N1C[C@@H](O)C[C@@H](NC(=O)c2sc3nccc4c3c2NC(=O)N4c2ccc(Oc3ccccc3)cc2C)C1 [Example 13, N-((3R,5S)-1-Acryloyl-5-hydroxypiperidin-3-yl)-5-(2-methyl-4-phenoxyphenyl)-4-oxo-4,5-dihydro-3H-1-thia-3,5,8-triazaacenaphthylene-2-carboxamide]		15.8	
C=CC(=O)N1C[C@H](NC(=O)c2sc3nccc4c3c2NC(=O)N4c2ccc(Oc3ccccc3)cc2C)C[C@H](OC)C1 [Example 14, N-((3R,5S)-1-Acryloyl-5-methoxypiperidin-3-yl)-5-(2-methyl-4-phenoxyphenyl)-4-oxo-4,5-dihydro-3H-1-thia-3,5,8-triazaacenaphthylene-2-carboxamide]	7.4		
C=CC(=O)N1CCC[C@@H](NC(=O)c2sc3nccc4c3c2NC(=O)N4c2ccc(Oc3ccccc3)cc2Cl)C1 [Example 15, (R)—N-(1-Acryloylpiperidin-3-yl)-5-(2-chloro-4-phenoxyphenyl)-4-oxo-4,5-dihydro-3H-1-thia-3,5,8-triazaacenaphthylene-2-carboxamide]	7.6		
C=CC(=O)N1CCC[C@@H](NC(=O)c2sc3nccc4c3c2NC(=O)N4c2ccc(Oc3cccc4ccoc34)cc2C)C1 [Example 16, (R)—N-(1-Acryloylpiperidin-3-yl)-5-(4-(benzofuran-7-yloxy)-2-methylphenyl)-4-oxo-4,5-dihydro-3H-1-thia-3,5,8-triazaacenaphthylene-2-carboxamide]	7.3		
C=CC(=O)N1CC[C@@H](NC(=O)c2sc3nccc4c3c2NC(=O)N4c2ccc(Oc3c(F)cccc3F)cc2C)C1 [Example 17, (R)—N-(1-Acryloylpyrrolidin-3-yl)-5-(4-(2,6-difluorophenoxy)-2-methylphenyl)-4-oxo-4,5-dihydro-3H-1-thia-3,5,8-triazaacenaphthylene-2-carboxamide]	7.7		
C=CC(=O)N1CCC[C@@H](NC(=O)c2sc3nccc4c3c2NC(=O)N4c2ccc(Oc3ccccc3)cc2)C1 [Example 18, (R)—N-(1-Acryloylpiperidin-3-yl)-4-oxo-5-(4-phenoxyphenyl)-4,5-dihydro-3H-1-thia-3,5,8-triazaacenaphthylene-2-carboxamide]	8.2		
C=CC(=O)N1CCC[C@@H](NC(=O)c2sc3nccc4c3c2NC(=O)N4c2ccc(Oc3ccccc3CC)cc2C)C1 [Example 19, (R)—N-(1-Acryloylpiperidin-3-yl)-5-(4-(2-ethylphenoxy)-2-methylphenyl)-4-oxo-4,5-dihydro-3H-1-thia-3,5,8-triazaacenaphthylene-2-carboxamide]		63.1	
C=CC(=O)N1CCC[C@@H](NC(=O)c2sc3nccc4c3c2NC(=O)N4c2c(C)cc(Oc3ccccc3)cc2F)C1 [Example 20, (R)—N-(1-Acryloylpiperidin-3-yl)-5-(2-fluoro-6-methyl-4-phenoxyphenyl)-4-oxo-4,5-dihydro-3H-1-thia-3,5,8-triazaacenaphthylene-2-carboxamide]	7.4		
Cc1cc(Oc2ccccc2)ccc1N1C(=O)Nc2c(C(=O)N[C@@H]3CCCN(C(=O)/C(C#N)=C/C4(C)COC4)C3)sc3nccc1c23 [Example 21, (R,E)-N-(1-(2-cyano-3-(3-methyloxetan-3-yl)acryloyl)piperidin-3-yl)-5-(2-methyl-4-phenoxyphenyl)-4-oxo-4,5-dihydro-3H-1-thia-3,5,8-triazaacenaphthylene-2-carboxamide]	7.7		
C=CC(=O)N1CC[C@@H](NC(=O)c2sc3nccc4c3c2NC(=O)N4c2ccc(Oc3cccc4ccoc34)cc2C)C1 [Example 22, (R)—N-(1-Acryloylpyrrolidin-3-yl)-5-(4-(benzofuran-7-yloxy)-2-methylphenyl)-4-oxo-4,5-dihydro-3H-1-thia-3,5,8-triazaacenaphthylene-2-carboxamide]	7.4		
C=C(Cl)C(=O)N1CCC[C@@H](NC(=O)c2sc3nccc4c3c2NC(=O)N4c2ccc(Oc3ccccc3)cc2C)C1 [Example 26, (R)—N-(1-(2-Chloroacryloyl)piperidin-3-yl)-5-(2-methyl-4-phenoxyphenyl)-4-oxo-4,5-dihydro-3H-1-thia-3,5,8-triazaacenaphthylene-2-carboxamide]		50.1	
